What was measured:
[1] = molecular target: T1, SLC19A3 (Homo sapiens, UniProt Q9BZV2); experiment: Uptake ratio screen, SLC19A3-overexpressing HEK293 over empty vector cells; format: cell-based; settings: 2.5 μM, 2 min
T1 construct: expressed in transfected cells
Experimental: (§1) Typically discussed substrates of the proton organic-cation antiporter ([14]) are highlighted in dark green in Figure 1.
In preparation for transport experiments, 24-well plates were pre-coated with poly-D-lysine (Sigma-Aldrich) and 300,000 cells were plated per well and incubated for 48 h. Firstly, the 24-well plate was placed on a heating plate at 37 °C, and the cells were washed with 37 °C HBSS^+ buffer (Hank’s balanced salt solution supplemented with 10 mM Hepes and adjusted to pH 7.4; Thermo Fisher Scientific). The substance-of-interest, which was diluted in 37 °C HBSS^+ to a desired concentration, was added to the cells for exactly 2 min. […] For variations in seeded cell numbers between the cell lines, several wells were lysed in RIPA buffer and used for total protein quantification using a bicinchoninic assay ([74]) and bovine serum albumin as calibration.
The intracellular drug concentrations after transport experiments were analyzed by high-performance liquid chromatography coupled to tandem mass spectrometry analysis. […] After separation, the detection of substances was performed with an API 4000 tandem mass spectrometer (AB SCIEX, https://sciex.com/support/software-support/software-downloads), followed by quantification of results with the Analyst software (AB SCIEX, version 1.6.2). […]

[2] = molecular target: T2, SLC35E4 (Homo sapiens, UniProt Q6ICL7); experiment: Uptake ratio screen, SLC35E4-overexpressing HEK293 over empty vector cells; format: cell-based; parameters: by amplifying the entire gene-of-interest within the HEK293 genome via a long-range PCR; settings: 2.5 μM, 2 min
T2 sequence (Q6ICL7 1-350): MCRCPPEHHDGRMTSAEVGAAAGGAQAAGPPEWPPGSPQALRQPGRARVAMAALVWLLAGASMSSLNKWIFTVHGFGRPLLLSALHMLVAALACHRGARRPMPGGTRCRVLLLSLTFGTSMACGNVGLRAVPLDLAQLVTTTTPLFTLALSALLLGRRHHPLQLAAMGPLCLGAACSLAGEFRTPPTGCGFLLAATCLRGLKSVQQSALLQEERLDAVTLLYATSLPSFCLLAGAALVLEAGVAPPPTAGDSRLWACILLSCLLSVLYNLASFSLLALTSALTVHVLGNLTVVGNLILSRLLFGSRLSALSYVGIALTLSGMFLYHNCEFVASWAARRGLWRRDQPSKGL
Experimental: as §1
(§2) In preparation for transport experiments, 24-well plates were pre-coated with poly-D-lysine (Sigma-Aldrich) and 300,000 cells were plated per well and incubated for 48 h. Firstly, the 24-well plate was placed on a heating plate at 37 °C, and the cells were washed with 37 °C HBSS^+ buffer (Hank’s balanced salt solution supplemented with 10 mM Hepes and adjusted to pH 7.4; Thermo Fisher Scientific). The substance-of-interest, which was diluted in 37 °C HBSS^+ to a desired concentration, was added to the cells for exactly 2 min. […] The uptake was stopped with ice-cold HBSS^+, and the 24-well plate was removed from the heating plate. The cells were washed twice with the cold HBSS^+ before they were lysed for 15 min with 80% (v/v) acetonitrile containing the respective internal standard for mass spectrometry. For variations in seeded cell numbers between the cell lines, several wells were lysed in RIPA buffer and used for total protein quantification using a bicinchoninic assay ([74]) and bovine serum albumin as calibration.
The intracellular drug concentrations after transport experiments were analyzed by high-performance liquid chromatography coupled to tandem mass spectrometry analysis. The HPLC consisted of a Shimadzu Nexera HPLC System with a SIL-30AC autosampler, a LC-30AD pump, a CTO-20AC column oven, and a CBM-20A controller (Shimadzu). The reverse-phase chromatography of compounds was accomplished with a Brownlee SPP RP-Amide column with 4.6 × 100 mm inner dimensions, a particle size of 2.7 μm, and a preceding Phenomenex C-18 guard column. […] After separation, the detection of substances was performed with an API 4000 tandem mass spectrometer (AB SCIEX, https://sciex.com/support/software-support/software-downloads), followed by quantification of results with the Analyst software (AB SCIEX, version 1.6.2). […]
(§3) Transport-mediated net uptake was determined as fold-increase of transporter-overexpressing cells over empty vector–transfected control cells.

[3] = molecular target: SLC35F3 (Homo sapiens, UniProt Q8IY50)
[4] = molecular target: T3, SLC35F4 (Homo sapiens, UniProt A4IF30); experiment: Uptake ratio screen, SLC35F4-overexpressing HEK293 over empty vector cells; format: cell-based; parameters: by amplifying the entire gene-of-interest within the HEK293 genome via a long-range PCR; settings: 2.5 μM, 2 min
T3 sequence (A4IF30 1-521): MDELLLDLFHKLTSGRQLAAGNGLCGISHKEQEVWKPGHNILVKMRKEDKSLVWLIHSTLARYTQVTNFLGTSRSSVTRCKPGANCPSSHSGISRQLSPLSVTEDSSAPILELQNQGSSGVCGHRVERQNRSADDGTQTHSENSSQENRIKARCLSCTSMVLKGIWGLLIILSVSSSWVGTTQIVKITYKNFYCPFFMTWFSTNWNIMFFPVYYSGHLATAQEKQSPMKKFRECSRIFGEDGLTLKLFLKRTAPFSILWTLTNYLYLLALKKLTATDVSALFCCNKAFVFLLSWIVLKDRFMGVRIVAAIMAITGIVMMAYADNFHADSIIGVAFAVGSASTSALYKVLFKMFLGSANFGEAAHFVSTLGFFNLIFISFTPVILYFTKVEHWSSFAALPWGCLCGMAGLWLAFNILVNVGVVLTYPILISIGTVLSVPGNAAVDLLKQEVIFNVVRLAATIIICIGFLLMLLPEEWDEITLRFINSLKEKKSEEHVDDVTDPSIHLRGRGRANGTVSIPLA
Experimental: as §1, §2
(§4) The intracellular drug concentrations after transport experiments were analyzed by high-performance liquid chromatography coupled to tandem mass spectrometry analysis. The HPLC consisted of a Shimadzu Nexera HPLC System with a SIL-30AC autosampler, a LC-30AD pump, a CTO-20AC column oven, and a CBM-20A controller (Shimadzu). The reverse-phase chromatography of compounds was accomplished with a Brownlee SPP RP-Amide column with 4.6 × 100 mm inner dimensions, a particle size of 2.7 μm, and a preceding Phenomenex C-18 guard column. The mobile phase was composed of an organic additive with acetonitrile:methanol 6:1 (v/v) in total concentrations between 3% and 50% (v/v) and 0.1% (v/v) formic acid in the aqueous component of the eluent. During separation, the column oven was held at 40 °C and the mobile phase was maintained at a flow rate of 300 or 400 μl/min. After separation, the detection of substances was performed with an API 4000 tandem mass spectrometer (AB SCIEX, https://sciex.com/support/software-support/software-downloads), followed by quantification of results with the Analyst software (AB SCIEX, version 1.6.2). The composition of chromatographic conditions, as well as detailed mass spectrometric detection parameters, are listed in Table S5.
as §3

[5] = molecular target: SLC35E1 (Homo sapiens, UniProt Q96K37); settings: 2.5 μM, 2 min, HEK293
Experimental: as §1, §2, §4, §3

[6] = molecular target: SLC35G4 (Homo sapiens, UniProt P0C7Q5); settings: 2.5 μM, 2 min, HEK293
Experimental: as §1, §2, §4, §3

[7] = molecular target: SLC44A2 (Homo sapiens, UniProt Q8IWA5); settings: 2.5 μM, 2 min, HEK293
Experimental: as §1, §2, §4, §3

[8] = molecular target: SLC44A1 (Homo sapiens, UniProt Q8WWI5); settings: 2.5 μM, 2 min, HEK293
Experimental: as §1, §2, §4, §3

[9] = tested on: SLC5A7; settings: read-out: KM of choline transport by SLC5A7; high-affinity choline transporter; ref [46]; cited from earlier work

Chain of SLC44A2 (Q8IWA5 whole entry): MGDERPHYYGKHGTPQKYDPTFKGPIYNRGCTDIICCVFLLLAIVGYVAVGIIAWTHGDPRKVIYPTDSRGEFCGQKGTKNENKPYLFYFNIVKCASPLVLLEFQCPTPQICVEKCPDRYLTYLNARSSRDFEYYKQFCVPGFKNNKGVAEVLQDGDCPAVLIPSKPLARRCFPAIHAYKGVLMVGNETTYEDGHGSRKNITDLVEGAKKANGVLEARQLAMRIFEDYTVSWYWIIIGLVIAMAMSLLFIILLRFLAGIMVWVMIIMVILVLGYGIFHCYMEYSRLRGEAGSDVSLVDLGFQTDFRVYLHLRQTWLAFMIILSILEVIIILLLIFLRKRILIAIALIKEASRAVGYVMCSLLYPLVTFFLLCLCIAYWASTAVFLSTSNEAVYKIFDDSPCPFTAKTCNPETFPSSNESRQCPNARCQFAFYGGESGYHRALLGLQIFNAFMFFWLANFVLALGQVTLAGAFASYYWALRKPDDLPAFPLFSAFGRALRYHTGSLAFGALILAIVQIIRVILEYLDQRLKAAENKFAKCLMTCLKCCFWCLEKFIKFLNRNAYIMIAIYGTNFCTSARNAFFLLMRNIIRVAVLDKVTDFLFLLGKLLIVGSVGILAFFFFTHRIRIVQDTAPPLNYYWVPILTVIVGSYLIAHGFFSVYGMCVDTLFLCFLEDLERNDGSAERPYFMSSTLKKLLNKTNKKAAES
Chain of SLC44A1 (Q8WWI5 whole entry): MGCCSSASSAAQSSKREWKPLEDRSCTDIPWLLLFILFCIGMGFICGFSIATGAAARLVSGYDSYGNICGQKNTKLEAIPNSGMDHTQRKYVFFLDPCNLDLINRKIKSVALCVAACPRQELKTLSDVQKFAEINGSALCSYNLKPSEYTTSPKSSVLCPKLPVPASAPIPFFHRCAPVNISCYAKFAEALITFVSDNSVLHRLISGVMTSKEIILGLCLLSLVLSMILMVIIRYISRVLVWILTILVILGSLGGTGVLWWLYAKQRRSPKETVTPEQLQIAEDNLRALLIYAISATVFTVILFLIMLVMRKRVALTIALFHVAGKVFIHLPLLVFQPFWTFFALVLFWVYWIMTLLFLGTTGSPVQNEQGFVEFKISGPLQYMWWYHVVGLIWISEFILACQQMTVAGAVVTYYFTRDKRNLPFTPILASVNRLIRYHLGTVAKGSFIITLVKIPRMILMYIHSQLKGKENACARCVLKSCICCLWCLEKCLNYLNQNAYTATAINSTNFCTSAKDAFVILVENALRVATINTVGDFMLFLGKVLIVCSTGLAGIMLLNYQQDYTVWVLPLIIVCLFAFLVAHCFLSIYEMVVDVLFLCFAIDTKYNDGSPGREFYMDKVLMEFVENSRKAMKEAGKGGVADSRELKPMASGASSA
Chain of SLC35E1 (Q96K37 whole entry): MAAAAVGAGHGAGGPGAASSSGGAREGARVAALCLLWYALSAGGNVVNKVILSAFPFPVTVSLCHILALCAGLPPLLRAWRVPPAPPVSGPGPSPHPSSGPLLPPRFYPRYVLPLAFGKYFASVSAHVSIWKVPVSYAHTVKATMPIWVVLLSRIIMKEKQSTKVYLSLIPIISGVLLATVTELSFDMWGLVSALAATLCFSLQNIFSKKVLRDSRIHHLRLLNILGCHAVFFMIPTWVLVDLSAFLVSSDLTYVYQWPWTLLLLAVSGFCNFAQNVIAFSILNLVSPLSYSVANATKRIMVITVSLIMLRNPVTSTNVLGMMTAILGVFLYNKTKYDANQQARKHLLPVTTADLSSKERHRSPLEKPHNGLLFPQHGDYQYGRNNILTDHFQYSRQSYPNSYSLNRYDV
Chain of SLC35F3 (Q8IY50 whole entry): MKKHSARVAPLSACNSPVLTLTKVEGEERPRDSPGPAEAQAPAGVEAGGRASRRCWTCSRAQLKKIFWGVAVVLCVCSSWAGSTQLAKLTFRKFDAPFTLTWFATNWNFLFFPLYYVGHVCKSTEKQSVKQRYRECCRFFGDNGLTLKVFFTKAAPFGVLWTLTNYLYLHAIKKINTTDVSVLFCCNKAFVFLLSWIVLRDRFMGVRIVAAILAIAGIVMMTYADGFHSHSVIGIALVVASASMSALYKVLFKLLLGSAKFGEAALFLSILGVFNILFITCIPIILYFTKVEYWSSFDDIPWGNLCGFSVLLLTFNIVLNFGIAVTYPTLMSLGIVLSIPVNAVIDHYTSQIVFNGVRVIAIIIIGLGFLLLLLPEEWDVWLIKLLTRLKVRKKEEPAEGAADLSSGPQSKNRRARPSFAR
Chain of SLC35G4 (P0C7Q5 whole entry): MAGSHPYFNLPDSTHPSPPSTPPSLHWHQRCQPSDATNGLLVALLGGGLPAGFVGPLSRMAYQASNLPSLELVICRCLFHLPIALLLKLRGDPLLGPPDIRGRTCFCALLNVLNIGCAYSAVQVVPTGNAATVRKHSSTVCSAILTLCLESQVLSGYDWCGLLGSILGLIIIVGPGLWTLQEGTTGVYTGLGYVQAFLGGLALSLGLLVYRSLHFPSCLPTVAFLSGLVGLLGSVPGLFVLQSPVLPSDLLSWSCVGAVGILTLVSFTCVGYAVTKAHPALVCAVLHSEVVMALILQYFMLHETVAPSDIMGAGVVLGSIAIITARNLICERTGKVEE
T1 sequence (Q9BZV2 whole entry): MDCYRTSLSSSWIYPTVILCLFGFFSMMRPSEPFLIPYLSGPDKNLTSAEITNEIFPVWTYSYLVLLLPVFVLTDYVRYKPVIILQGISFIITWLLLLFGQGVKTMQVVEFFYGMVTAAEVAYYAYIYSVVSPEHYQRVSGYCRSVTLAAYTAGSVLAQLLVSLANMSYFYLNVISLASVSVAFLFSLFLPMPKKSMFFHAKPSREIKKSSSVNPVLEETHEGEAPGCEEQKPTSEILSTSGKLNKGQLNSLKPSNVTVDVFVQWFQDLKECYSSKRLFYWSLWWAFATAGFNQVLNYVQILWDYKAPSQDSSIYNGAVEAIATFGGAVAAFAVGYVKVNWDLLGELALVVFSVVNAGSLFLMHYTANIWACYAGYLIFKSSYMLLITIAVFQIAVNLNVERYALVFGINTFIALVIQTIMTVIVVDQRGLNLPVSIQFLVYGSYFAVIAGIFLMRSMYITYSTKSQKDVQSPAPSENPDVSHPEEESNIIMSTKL

Uptake by SLC19A3 (in words) [1]: transports
Uptake by SLC35E4 (in words) [2]: moderate influx transport activity
Clint (±SEM) [3]: 1.21 (±1.36) μl × mg protein^-1 × min^-1
Uptake by SLC35F4 (in words) [4]: enhanced cell uptake
Uptake by SLC35E1 (in words) [5]: significantly enhanced
Uptake by SLC35G4 (in words) [6]: extensively enhanced the cell uptake
Uptake by SLC44A2 (CTL2) (in words) [7]: moderate choline uptake
Uptake by SLC44A1 (CTL1) (in words) [8]: moderate choline uptake
SMILES: C[N+](C)(C)CCO [Choline]
Km [9]: 2 µM

— publication PMC11406361, “Several orphan solute carriers functionally identified as organic cation transporters: Substrates specificity compared with known cation transporters” (The Journal of Biological Chemistry, 2024)
